The results in this text go back to patent US4877881A, “Process of preparing pyrazoles, isoxazoles and analogs thereof having activity as 5-lipoxygenase inhibitors” (Warner-Lambert Company, priority 1988, dated 1989).

Structures are written as SMILES.

Experiment [1] deals with T1, 5-lipoxygenase (Homo sapiens, UniProt P09917).
T1 construct: The formation of 5-HETE in human leukocytes is considered a measure of 5-lipoxygenase activity; endogenous in cells; host or cells: leukocytes isolated from fresh human blood
T1 sequence (P09917 1-674): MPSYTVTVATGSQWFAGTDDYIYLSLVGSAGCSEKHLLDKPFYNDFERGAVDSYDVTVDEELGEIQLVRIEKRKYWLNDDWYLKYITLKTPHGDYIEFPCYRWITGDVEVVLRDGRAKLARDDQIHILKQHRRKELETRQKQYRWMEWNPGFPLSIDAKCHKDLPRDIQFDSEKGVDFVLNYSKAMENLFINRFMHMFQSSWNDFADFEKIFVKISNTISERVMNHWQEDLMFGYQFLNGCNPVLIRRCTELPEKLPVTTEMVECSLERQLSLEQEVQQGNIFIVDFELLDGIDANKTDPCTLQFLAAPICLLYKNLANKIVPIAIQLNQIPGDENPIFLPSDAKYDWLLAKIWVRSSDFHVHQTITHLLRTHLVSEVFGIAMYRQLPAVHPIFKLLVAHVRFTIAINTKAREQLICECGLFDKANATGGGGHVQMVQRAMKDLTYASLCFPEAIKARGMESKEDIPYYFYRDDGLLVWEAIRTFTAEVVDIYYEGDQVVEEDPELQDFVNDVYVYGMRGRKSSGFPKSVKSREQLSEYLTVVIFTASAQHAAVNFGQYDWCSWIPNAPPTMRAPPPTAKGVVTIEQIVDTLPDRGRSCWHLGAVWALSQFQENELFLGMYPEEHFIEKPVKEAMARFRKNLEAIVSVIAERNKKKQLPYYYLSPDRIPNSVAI
Nature of the experiment: 5-Lipoxygenase Assay Using Isolated Human Leukocytes (5LOA2), 5-HETE formation. It counts as cell-based. To be noted: inhibition of 5-HETE formation, arachidonic acid 20 μM, A23187 10 μM, read-out: 5-LO(IC50 in μM). As to the method:
5-Lipoxygenase Assay Using Isolated Human Leukocytes (5LOA2)
The formation of 5-HETE in human leukocytes is considered a measure of 5-lipoxygenase activity. The protocol is described in the following.
Fresh heparinized or EDTA treated human blood is mixed with 6% dextran-3% dextrose in isotonic saline in the ratio 0.25 ml dextran solution per 1.0 ml blood. After mixing the blood is allowed to sit at room temperature for about 90 minutes while the RBC's settle. During this period, the plasma is removed with a plastic pipette to nalgens tubes.
The pellet, consisting of leukocytes and erythrocytes, is treated with 10 ml 0.87% ammonium chloride at room temperature for four minutes, lysing the red cells. At the end of four minutes the cells are diluted with a 2x volume of phosphate buffered saline, pH 7.4, and centrifuged for ten minutes. The cells are washed three times with the phosphate buffered saline. Any of the pelleted cell matter which is not easily resuspended is discarded during the washings--the material contains platelets (12-lipoxygenase activity).
After washing, the cells are resuspended in phosphate buffered saline containing 1.0 mM 'calcium and 0.5 mM magnesium. After counting, the cells are diluted to 1.5-2.0×10^7 leukocytes per milliliter.
To each polypropylene reaction tube is added 0.48 ml leukocytes in Ca-Mg phosphate buffered saline, pH 7.4; 1-5 μl test compound dissolved in DMSO and buffer; or DMSO for control tubes.
The tubes preincubate at 37° C. for five minutes.
The reaction is started by adding 20 μl of the following, 0.5 μl, 20 mM arachidonic acid--final concentration=20 μM; 1 μl, 5 mM calcium ionophore A23187--final concentration=10 μM; and 18.5 μl buffer.
The reaction proceeds for five minutes, then is stopped by adding 0.5 ml, 0.5 mM ice-cold Tris buffer, pH 8.0. The tubes are chilled on ice for ten minutes and then extracted three times with a total of 3.5 ml ethyl acetate (3.0 ml removed).
The tubes can be stored at this point. For extended storage, the tubes should be filled with nitrogen.
The ethyl acetate is evaporated with a Sorvall Speed-Vac. The residue is dissolved in ethanol. The tubes can also be stored at this point at -20° C. under nitrogen.
A portion of the ethanol solution is injected into the HPLC system for 5-HETE quantitation.
Injections are made automatically with a Waters WISP 710B. The pump is a Spectra Physics SP8700. […] An RP C-18 column is used. The solvent system is isocratic; the solvent is 70% methanol and 30% 0.01M sodium acetate, pH 5.7, pumped at 1.0 ml/min. […] Using a 15 cm Alltech Nucleosil C-18 5 μM column provides for a sample turnaround time of about 16 minutes.

In experiment [2] the target is T2, cyclooxygenase (Bos taurus, UniProt O62664).
T2 construct: The assay consists of incubating 2 mg bovine seminal vesicle powder; from tissue; host or cells: bovine seminal vesicle powder
T2 sequence (O62664 25-600): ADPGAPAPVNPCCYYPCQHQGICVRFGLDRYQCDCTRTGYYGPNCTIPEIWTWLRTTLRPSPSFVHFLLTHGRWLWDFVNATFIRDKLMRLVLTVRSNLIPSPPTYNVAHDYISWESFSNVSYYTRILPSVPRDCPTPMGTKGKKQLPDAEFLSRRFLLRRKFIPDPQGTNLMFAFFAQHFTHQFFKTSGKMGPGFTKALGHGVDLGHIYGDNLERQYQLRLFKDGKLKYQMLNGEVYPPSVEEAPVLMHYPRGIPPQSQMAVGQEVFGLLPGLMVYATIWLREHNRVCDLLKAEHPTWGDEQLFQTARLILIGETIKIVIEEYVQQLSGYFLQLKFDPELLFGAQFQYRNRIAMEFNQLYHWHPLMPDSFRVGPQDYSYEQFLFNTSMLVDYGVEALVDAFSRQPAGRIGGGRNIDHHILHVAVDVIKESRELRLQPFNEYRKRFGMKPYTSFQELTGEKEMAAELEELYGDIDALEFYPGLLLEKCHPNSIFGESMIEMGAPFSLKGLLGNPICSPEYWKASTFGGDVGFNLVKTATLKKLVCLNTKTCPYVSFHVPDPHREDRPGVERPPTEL
Kind of experiment: Cyclooxygenase Enzyme Assay, bovine seminal vesicle (BSV), PGE2 formation. It counts as biochemical. To be noted: bovine seminal vesicle powder; 100 μM arachidonic acid, 20 minutes. As to the method: Cyclooxygenase Enzyme Assay
Additionally, inhibition of cyclooxygenase is considered a measure of relevance to the pathophysiology of the above noted diseases.
The assay consists of incubating 2 mg bovine seminal vesicle powder with 2 mM epinephrine, 2.5 mM reduced glutathione, 100 μM arachidonic acid, and the test agent for 20 minutes. The reaction mixture is acidified and extracted with ethyl acetate (3×1.0 ml) and the pooled extract is evaporated to dryness using a Speed Vac Concentrator or under a stream of nitrogen. The residue was dissolved in ethanol.

Experiment [3] has as its target T3, 5-lipoxygenase (Rattus norvegicus, UniProt P12527).
T3 construct: ARBL/ARBC Whole Cell 5-Lipoxygenase and Cyclooxygenase Assays; endogenous in cells; host or cells: RBL-1 rat basophilic leukemia cells (American Type Culture Collection)
T3 sequence (P12527 1-673): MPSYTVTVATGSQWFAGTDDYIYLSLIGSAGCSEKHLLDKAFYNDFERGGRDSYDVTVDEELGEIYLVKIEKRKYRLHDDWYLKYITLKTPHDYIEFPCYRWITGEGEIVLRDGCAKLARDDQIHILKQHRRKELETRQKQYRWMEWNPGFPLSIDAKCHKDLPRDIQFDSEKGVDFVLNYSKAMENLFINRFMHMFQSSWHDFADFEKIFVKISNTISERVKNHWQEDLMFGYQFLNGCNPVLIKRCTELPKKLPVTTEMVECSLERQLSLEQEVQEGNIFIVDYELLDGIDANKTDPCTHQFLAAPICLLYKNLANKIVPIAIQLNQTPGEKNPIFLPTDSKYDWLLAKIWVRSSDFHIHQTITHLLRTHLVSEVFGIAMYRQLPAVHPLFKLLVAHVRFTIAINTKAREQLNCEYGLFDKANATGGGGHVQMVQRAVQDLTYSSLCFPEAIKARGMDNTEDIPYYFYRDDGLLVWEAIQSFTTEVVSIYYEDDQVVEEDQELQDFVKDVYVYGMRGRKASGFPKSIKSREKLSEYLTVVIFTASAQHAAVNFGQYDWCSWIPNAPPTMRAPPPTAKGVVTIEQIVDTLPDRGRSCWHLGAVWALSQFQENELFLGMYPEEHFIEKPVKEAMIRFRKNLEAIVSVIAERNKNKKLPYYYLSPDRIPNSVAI
Kind of experiment: ARBL Whole Cell 5-Lipoxygenase Assay in RBL-1 cells (LTB4 RIA). It is filed as cell-based. To be noted: RBL-1 intact cell 5-lipoxygenase; A23187 5 μM. As to the method: (§1) ARBL/ARBC Whole Cell 5-Lipoxygenase and Cyclooxygenase Assays
(§2) The rat basophilic leukemia cell line (RBL-1) was obtained from the American Type Culture Collection (Rockville, Md.).
(§3) Radioimmuno assay (RIA) kits of LTB4 and PGF2α were obtained from Amersham (Arlington Heights, Ill.) and Seragen (Boston, Mass.) respectively.
(§4) All tissue culture media were obtained from GIBO (Gran Island, N.Y.).
(§5) RBL-1 cells were grown in culture (suspension) in Eagle's minimum essential medium supplemented with 12% fetal bovine serum and 1:100 antibiotic-antimycotic mixture at 37° C. in an incubator supplied with air-5% carbon dioxide. Cells were harvested by centrifugation. They were washed with cold phosphate buffered saline pH 7.4 (PBS; NaCl, 7.1 g; Na2 HOP4, 1.15 g; KH2 PO4, 0.2 g; and KCl, 0.2 g/L). […] Calcium ionophore A23187 (5 μM) was added and cells were incubated for seven minutes at 37° C. The reaction was stopped by chilling the tubes in ice for ten minutes. Cells were separated by centrifugation and the supernatant was stored at -20°. Aliquots (100 μl) were analyzed for LTB4 and PGF2α using radioimmuno assay kits as provided by the supplier.

Experiment [4] addresses T4, cyclooxygenase (Rattus norvegicus, UniProt Q63921).
T4 construct: RBL-1 intact cell cyclooxygenase IC50 values; endogenous in cells; host or cells: RBL-1 rat basophilic leukemia cells (American Type Culture Collection)
T4 sequence (Q63921 27-602): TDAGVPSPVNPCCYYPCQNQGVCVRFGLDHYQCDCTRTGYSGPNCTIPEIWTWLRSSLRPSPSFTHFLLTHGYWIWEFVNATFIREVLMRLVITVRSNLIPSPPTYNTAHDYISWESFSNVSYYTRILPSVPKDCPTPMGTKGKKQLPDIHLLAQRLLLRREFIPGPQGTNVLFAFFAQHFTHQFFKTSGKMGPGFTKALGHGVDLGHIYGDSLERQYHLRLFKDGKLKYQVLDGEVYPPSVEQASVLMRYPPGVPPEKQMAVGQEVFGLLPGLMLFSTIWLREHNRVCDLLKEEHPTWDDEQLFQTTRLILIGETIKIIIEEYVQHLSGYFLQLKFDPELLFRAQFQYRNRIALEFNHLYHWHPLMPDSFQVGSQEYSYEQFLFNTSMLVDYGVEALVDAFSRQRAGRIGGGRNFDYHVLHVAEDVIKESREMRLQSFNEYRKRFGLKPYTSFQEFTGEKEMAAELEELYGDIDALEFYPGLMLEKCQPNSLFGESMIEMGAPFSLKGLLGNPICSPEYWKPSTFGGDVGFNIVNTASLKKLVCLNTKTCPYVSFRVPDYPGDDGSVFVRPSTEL
Nature of the experiment: ARBC Whole Cell Cyclooxygenase Assay in RBL-1 cells (PGF2α RIA). It is filed as cell-based. To be noted: RBL-1 intact cell cyclooxygenase; A23187 5 μM. As to the method:
as §1, §2, §3, §4, §5

`COc1cc(CCc2cc(CCc3ccc(O)c(OC)c3)[nH]n2)ccc1O` [Example 2, 3,5-Bis[β-(4'-hydroxy-3'-methoxyphenyl)ethyl]pyrazole]: the IC50 (as a rule, the concentration that inhibits the measured activity by half) was found to be 53 µM in experiment [1] and 67 µM in experiment [2]. Turning to `Oc1ccc(CCc2cc(CCc3ccc(O)cc3)[nH]n2)cc1` [Example 3, 3,5-Bis[β-(4'-hydroxyphenyl)ethyl]pyrazole], the IC50 was 15 µM in experiment [1] and 44 µM in experiment [2].

Take `COc1cc(C=Cc2cc(-c3ccccc3)[nH]n2)ccc1O` [Example 4, 3-[β-(4'-Hydroxy-3'-methoxyphenyl)ethenyl]-5-phenylpyrazole]: the figures for the IC50 in experiment [1] and in experiment [2] were 4.3 µM and 40 µM, respectively. Turning to `COc1cc(CCc2cc(C)n[nH]2)ccc1O` [Example 6, 3-[β-(4'-Hydroxy-3'-methoxyphenyl)ethyl]-5-methylpyrazole], in experiment [1], the IC50 is over 20 µM. Consider `COc1ccc(C=Cc2cc(C)[nH]n2)cc1O` [Example 8, 3-[β-(4'-Methoxy-3'-hydroxyphenyl)ethenyl]-5-methylpyrazole], for which the 50% inhibitory concentration (IC50) in experiment [1] was over 20 µM. Regarding `CCc1cc(C=Cc2ccc(O)c(OC)c2)n[nH]1` [Example 9, 3-[β-(4'-Hydroxy-3'-methoxyphenyl)ethenyl]-5-ethylpyrazole], the IC50 in experiment [1] is 7.5 µM; in experiment [2], 56 µM.

On to `CCOC(=O)c1cc(C=Cc2ccc(O)c(OC)c2)n[nH]1` [Example 10, Ethyl-3-[β-(3-methoxy-4-hydroxyphenyl)ethenyl]-1H-pyrazole-5-carboxylate], for which the IC50 was found to be 18 µM in experiment [1], 5.2 µM in experiment [3] and 11 µM in experiment [4].

As for `COc1cc(CCc2cc(CCc3ccc(O)c(OC)c3)on2)ccc1O` [Example 12, 3,5-Bis[β-(4'-hydroxy-3'-methoxyphenyl)ethyl]isoxazole], the values for the IC50 in experiment [1] and in experiment [2] were 29 µM and 31 µM, respectively.
